Measured values published in ChEMBL document CHEMBL4616645, “Dysidealactams and Dysidealactones: Sesquiterpene Glycinyl-Lactams, Imides, and Lactones from a Dysidea sp. Marine Sponge Collected in Southern Australia” (J Nat Prod, 2020).
The source made the active and inactive calls.

What was measured:
NCI-H460 = test: Cytotoxicity against human NCI-H460 cells assessed as reduction in cell viability up to 30 uM uM after 48 hrs by MTT assay; format: functional, cell-based
Bacillus subtilis = test: Antibacterial activity against Bacillus subtilis ATCC 6051 assessed as reduction In microbial growth up to 30 uM after 24 hrs by spectrophotometric method; format: functional, organism-based
Escherichia coli = test: Antibacterial activity against Escherichia coli ATCC 11775 assessed as reduction In microbial growth up to 30 uM after 24 hrs by spectrophotometric method; format: functional, organism-based
SW-620 = test: Cytotoxicity against human SW620 cells assessed as reduction in cell viability up to 30 uM after 48 hrs by MTT assay; format: functional, cell-based
Candida albicans = test: Antifungal activity against Candida albicans ATCC 10231 assessed as reduction In microbial growth up to 30 uM after 24 hrs by spectrophotometric method; format: functional, organism-based

Measured: Activity

CCO[C@@H]1C2=C(CC[C@H]3C(C)(C)CCC[C@]23C)C(=O)N1CC(=O)O
inactive: all assays above

CC1(C)CCC[C@]2(C)C3=C(CC[C@@H]12)C(O)OC3=O (stereo not given in full)
inactive: all assays above

CC1(C)CCC[C@]2(C)C3=C(CC[C@@H]12)C(=O)N(CC(=O)O)[C@@H]3O
inactive: all assays above

CC1(C)CCC[C@]2(C)C3=C(CC[C@@H]12)C(=O)OC3O (stereo not given in full)
inactive: all assays above

CC1(C)CCC[C@]2(C)C3=C(CC[C@@H]12)C(=O)NC3=O
inactive: all assays above

CC1(C)CCC[C@]2(C)C3=C(CC[C@@H]12)C(=O)N(CC(=O)O)C3
inactive: all assays above

CCO[C@H]1C2=C(CC[C@H]3C(C)(C)CCC[C@]23C)C(=O)N1CC(=O)O
inactive: all assays above

CC1(C)CCC[C@]2(C)C3=C(CC[C@@H]12)C(=O)N(CC(=O)O)[C@H]3O
inactive: all assays above

CC1(C)CCC[C@]2(C)C3=C(CC[C@@H]12)CN(CC(=O)O)C3=O
inactive: all assays above

CC1(C)CCC[C@]2(C)C3=C(CC[C@@H]12)C(=O)N(CC(=O)O)C3=O
inactive: all assays above
